In PubChem BioAssay (NCI) one finds TGI and GI50 data, which are given here for 28 compounds.

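Interpolation was linear, between the two tested concentrations surrounding the appropriate level; five concentrations were tested over 48 hours in 96-well plates. Abbreviation: GI50, concentration required for 50% inhibition of growth. TGI denotes the concentration required for complete inhibition of growth.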

Holding throughout (assay): inhibition of tumour cell growth, NCI panel, 48 h
Test [1] has as its system 786-0 renal.
In test [2] the test system is A549 NSCLC.
The test system of test [3] is K-562 leukemia.
The subject of test [4] is SF-268 CNS.
Test [5] has as its system SK-MEL-2 melanoma.
The subject of test [6] is SK-MEL-5 melanoma.
Test [7] has as its system U251 CNS.
Test [8] deals with UACC-62 melanoma.
The subject of test [9] is HCC-2998 colon.

In the case of `O=C(O)c1ccc2c(c1)C(=O)N(c1ccc(S(=O)(=O)c3ccc(N4C(=O)c5ccc(C(=O)O)cc5C4=O)cc3)cc1)C2=O`, the TGI in test [1], in [2], in test [3], in [4], in [5] and in test [6] was above 100 µM throughout. Further, the TGI in [7] and in [8] was above 100 µM throughout.

Consider `CC1(C)c2ccccc2N2C(c3ccccc3)=NOC21C` (stereo not drawn), for which the TGI in [1], in test [2], in test [3], in test [4], in test [5] and in test [6] was above 100 µM in each case. Also, the TGI in test [7] and in test [8] was above 100 µM throughout.

For `C=C1C(=O)O[C@H](c2ccoc2)C[C@@H]1[C@@]1(C)CCCC2(C)C(=O)OCC21` (stereo partly drawn), the TGI in test [1], in test [2], in test [9], in test [3], in test [4] and in test [5] was above 100 µM each time. Besides, the TGI in test [6], in test [7] and in [8] was above 100 µM in each case.

Turning to `CC1OC(n2cc(C(F)(F)F)c(=O)[nH]c2=O)C=CC1=O` (stereo not drawn), the TGI in [1] is 33.1 µM; in test [2], above 100 µM; in [9], 32.3 µM; in [3] it was above 100 µM; in test [4], above 100 µM; in test [5], 34.6 µM. Also, the TGI in [8] was determined as 47.5 µM.

Consider `COc1cc(OCc2ccccc2)c2c(CCC(=O)O)cc(=O)oc2c1` (tested in a mixture with another compound), for which the TGI in [1], in [2], in test [9], in test [3], in [4] and in test [5] was above 100 µM each time. Besides, the TGI in [6], in test [7] and in test [8] was above 100 µM throughout.

Consider `C/C=C/C(=O)Oc1cccc2cccnc12`, for which the TGI is above 100 µM in [1]; above 100 µM in test [2]; 46.1 µM in [9]; above 100 µM in [3]; 14.5 µM in [4]; 51 µM in test [6]. Besides, the TGI in [7] was 12.9 µM; in test [8], above 39.5 µM.

On to `CCOC(=O)C1=C(C)NC(=O)NC1c1ccc(OC)cc1OC` (stereo not drawn), for which the TGI in test [1], in [2], in [9], in [3], in [4] and in [5] was above 100 µM throughout. For the same compound, the TGI in [6], in test [7] and in [8] was above 100 µM in each case.

For `COc1ccc(CN2C(=O)[C@@H]3Cc4c(OC)c(C)c(OC)c(OC)c4[C@H](/C2=C\c2cc(OC)c(OC)c(C)c2OC)N3C(=O)OC(C)C)cc1`, the TGI in test [1], in [2], in test [9], in [3], in test [4] and in test [5] was above 100 µM in each case. For the same compound, the TGI in test [6], in test [7] and in test [8] was above 100 µM throughout.

In the case of `Nc1cccc2c1-c1c(cccc1[N+](=O)[O-])C2=O`, the TGI in [1], in test [2], in [9], in test [3], in test [4] and in [6] was above 100 µM in each case. In addition, the TGI in test [7] and in test [8] was above 100 µM in each case.

On to `N#C/C(=C\c1c(O)cc(O)cc1O)C(N)=O`, for which the TGI in test [1], in test [2], in test [9], in test [3], in test [4] and in [5] was above 100 µM in each case. The TGI in test [6] and in test [7] was above 100 µM throughout.

Take `CCC12C=CCN(CCc3c([nH]c4ccccc34)/C=C\1)C2` (stereo not drawn): the TGI in test [1], in [2], in test [9], in [3], in test [4] and in test [5] was above 100 µM in each case. The TGI in test [6], in test [7] and in test [8] was above 100 µM each time.

As for `Cc1ccccc1NC(=O)Cc1nc2ccccc2s1`, the TGI in test [1] was determined as 31.6 µM; in test [2], 33.6 µM; in test [9], 64.9 µM; in test [3], 38.7 µM; in [4] it was 33 µM; in test [5], 29.9 µM. Besides, the TGI in test [6] is above 100 µM; in [7], 24.1 µM; in test [8], 35.7 µM.

As to `Cc1ccccc1NC(=O)/C(=N\NC(N)=S)C(C#N)c1ccccc1` (stereo not drawn), the TGI in test [1], in [2], in [9], in test [3], in [4] and in test [5] was above 100 µM throughout. For the same compound, the TGI in test [6], in test [7] and in [8] was above 100 µM each time.

For `COC(=O)C1C(C(=O)O)C2(c3ccccc3)C(=O)C1(c1ccccc1)C(c1ccccc1)=C2c1ccccc1` (stereo not drawn), the GI50 in [1] is 21.2 µM; in test [2] it was 19.8 µM; in test [9], 15.7 µM; in test [3] it was 21.8 µM; in test [4], 20 µM; in test [5], 16.5 µM. In addition, the GI50 was 12.9 µM in test [6], 24.2 µM in test [7] and 15.5 µM in test [8]. In addition, the TGI in [1] is 37.5 µM; in test [2], 39.1 µM; in [9], 29.6 µM; in [3], above 100 µM; in test [4] it was 53.1 µM; in [5] it was 34.1 µM. In addition, the TGI in [6] is 27.6 µM; in test [7], above 100 µM; in test [8], 29.9 µM.

Consider `Cn1[nH]cc2ccc3nc4ccccc4c(=O)c3c21`, for which the TGI in [1] was above 100 µM; in [2], above 66 µM; in test [9] it was 90.5 µM; in test [3], above 100 µM; in test [4], above 100 µM; in test [5], above 100 µM. Moreover, the TGI in [6] came to 35.1 µM; in test [7], 30.7 µM; in test [8], 26.6 µM.

For the compound `COC(=O)c1c(O)ccc(O)c1C(C(C)=O)C(C)=O`, the TGI in test [1], in test [2], in test [9], in test [3], in [4] and in test [5] was above 100 µM throughout. Besides, the TGI in test [6], in [7] and in test [8] was above 100 µM throughout.

Regarding `Cc1cccc(NC(=O)C(=O)C(C2OC(=O)c3ccccc32)[N+](=O)[O-])c1C` (stereo not drawn), the TGI was 21.8 µM in test [1]; 35.4 µM in [2]; 27 µM in [9]; 39.7 µM in test [3]; 24.7 µM in test [4]; 17.2 µM in test [5]. Moreover, the TGI in test [6] was 19.2 µM; in test [7] it was 12.6 µM; in test [8], 23.1 µM.

Consider `O=C(/C=C/c1ccc(Cl)c(Cl)c1)c1ccccc1Cl`, for which the TGI in test [1] worked out at 10.8 µM; in test [2] it was 31.6 µM; in test [9], 25.6 µM; in test [3] it was 19.4 µM; in test [4], 13.9 µM; in test [6], 26.7 µM. The TGI was 10.3 µM in test [7] and 25.5 µM in test [8].

Turning to `Cc1ccc2c(c1)-c1c3c(nn1C)-c1ccccc1SC3O2` (stereo not drawn), the TGI in test [1], in test [2], in [9], in [3], in [4] and in test [5] was above 100 µM throughout. Besides, in test [7], the TGI is above 100 µM.

For the compound `CCc1nc(C)cn1C(=O)OCc1nc2nc(Cl)nc(N3CCOCC3)c2[nH]1`, the GI50 in test [1] is 1.61 µM; in test [2], 1.83 µM; in [9], 1.84 µM; in test [3], 0.703 µM; in test [4] it was 1.53 µM; in test [5], 1.72 µM. Besides, the GI50 in test [6] was 1.64 µM; in test [7] it was 1.63 µM; in test [8] it was 1.44 µM. The TGI is 3.29 µM in [1]; 4.36 µM in test [2]; 3.44 µM in [9]; above 100 µM in test [3]; 3.06 µM in test [4]; 3.29 µM in [5]. Also, the TGI turned out to be 3.01 µM in test [6], 3.42 µM in test [7] and 2.75 µM in [8].

For the compound `N#Cc1c2ccccc2c(Cc2ccc3c(c2)OCCOCCOCCOCCOCCO3)c2ccccc12`, the TGI was 25.4 µM in test [1]; 16.7 µM in test [2]; 24.7 µM in [9]; above 100 µM in test [3]; 21.1 µM in [4]; 19.9 µM in [5]. Besides, the values for the TGI in [6], in test [7] and in test [8] were 17.5 µM, 26.2 µM and 19.8 µM, respectively.

With `CN(C)NC(=O)/C(=C/c1ccc(Cl)cc1)NC(=O)c1ccccc1`, the TGI in test [1], in test [2], in [9], in test [3], in test [4] and in test [5] was above 100 µM in each case. Moreover, the TGI in [6], in test [7] and in test [8] was above 100 µM each time.

Consider `CC(=O)[CH-]C(=O)c1ccccc1.CC(=O)[CH-]C(=O)c1ccccc1.Cl.[O-]c1ccnc2ccccc12.[O-]c1ccnc2ccccc12.[Ti+4]`, for which the GI50 in test [1], in test [9], in test [3], in test [4], in test [5] and in test [6] was above 100 µM each time. Besides, the GI50 in [7] and in test [8] was above 100 µM each time. Besides, the TGI in [1], in test [9], in [3], in test [4], in [5] and in [6] was above 100 µM each time. The TGI in test [7] and in test [8] was above 100 µM in each case.

Take `C[P+]1(Cc2ccccc2)CCCC1`: the TGI in test [1], in test [2], in test [9], in test [3], in [5] and in [6] was above 100 µM throughout. The TGI in test [7] and in test [8] was above 100 µM each time.

On to `CN(C)NC1=C([N+](=O)[O-])C=NN(c2ccccc2)C1`, for which the TGI is 3.24 µM in test [1]; 3.87 µM in [2]; 3.18 µM in test [9]; 6.15 µM in test [3]; 3.51 µM in test [4]; 3.21 µM in test [5]. The results for the TGI in test [6], in [7] and in [8] were 6.41 µM, 3.17 µM and 3.14 µM, respectively.

With `Cc1ccc(S(=O)(=O)OCOS(=O)(=O)c2ccc(C)cc2)cc1`, the TGI in test [1], in [2], in [9], in test [3], in test [4] and in test [5] was above 100 µM in each case. Moreover, the TGI in test [6] and in test [7] was above 100 µM in each case.

On to `CC(=O)OCC1OC(n2cccnc2=O)C(OC(C)=O)C1OC(C)=O` (stereo not drawn), for which the TGI in test [1], in test [2], in test [3], in test [4], in test [5] and in test [6] was above 100 µM in each case. In addition, the TGI in test [7] and in test [8] was above 100 µM in each case.

On to `CC1(C)C(=O)OC(n2cc(F)c(=O)[nH]c2=O)C1=O` (stereo not drawn), for which the TGI in test [1], in test [2], in test [9], in test [3], in test [4] and in test [5] was above 100 µM each time. In addition, the TGI in test [7] and in test [8] was above 100 µM throughout.
